According to PubChem BioAssay AID256 (DTP/NCI, 2004):
“And” between values parts separate entries of the source, which are not always exact repeats. Identical values can stand only once. Toxic doses and inconclusive results are not listed. Rule for the calls: active = survival T/C of 150% or more; inactive = T/C below 125% in these data.

System: CD2F1 mice, L1210 leukemia ip, survival T/C
Assay: NCI In Vivo Anticancer Drug Screen. Data for tumor model L1210 Leukemia (intraperitoneal) in CD2F1 (CDF1) mice
Details: higher = longer survival
Procedure, shortened: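 In this screen, transplantable tumors were grown in mice given either the compound or its vehicle. Results were expressed as the treated measurement relative to the control measurement.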

[1] = endpoint: mean survival time, dose: 100.0 mg/kg/injection, schedule: Q04DX003 (ip), vehicle: saline with Tween-80
[2] = endpoint: mean survival time, dose: 100.0 mg/kg/injection, schedule: Q01DX009 (ip), vehicle: saline with Tween-80
[3] = endpoint: mean survival time, dose: 200.0 mg/kg/injection, schedule: Q01DX009 (ip), vehicle: saline with Tween-80
[4] = endpoint: mean survival time, dose: 200.0 mg/kg/injection, schedule: Q04DX003 (ip), vehicle: saline with Tween-80
[5] = endpoint: mean survival time, dose: 400.0 mg/kg/injection, schedule: Q01DX009 (ip), vehicle: saline with Tween-80
[6] = endpoint: mean survival time, dose: 400.0 mg/kg/injection, schedule: Q04DX003 (ip), vehicle: saline with Tween-80
[7] = endpoint: mean survival time, dose: 100.0 mg/kg/injection, schedule: Q01DX001 (ip), vehicle: saline with Tween-80
[8] = endpoint: mean survival time, dose: 50.0 mg/kg/injection, schedule: Q04DX003 (ip), vehicle: saline
[9] = endpoint: mean survival time, dose: 100.0 mg/kg/injection, schedule: Q04DX003 (ip), vehicle: saline
[10] = endpoint: mean survival time, dose: 50.0 mg/kg/injection, schedule: Q01DX009 (ip), vehicle: saline with Tween-80

Measured: T/C

Cc1ccc(S(=O)(=O)NOCCCCONS(=O)(=O)c2ccc(C)cc2)cc1
inactive: endpoint: mean survival time, dose: 25.0 mg/kg/injection, schedule: Q04DX003 (ip), vehicle: saline with Tween-80 91 % of control | endpoint: mean survival time, dose: 50.0 mg/kg/injection, schedule: Q04DX003 (ip), vehicle: saline with Tween-80 89 % of control | [1] 89 % of control and 97 % of control

O=C1C(=C(C(F)(F)F)C(F)(F)F)CCc2ccc([N+](=O)[O-])cc21
inactive: [2] 102 % of control | [1] 114 % of control | [3] 104 % of control | [4] 101 % of control | [5] 102 % of control | [6] 103 % of control

COc1c(O)ccc(/C=C2/SC(=S)NC2=O)c1[N+](=O)[O-]
inactive: [7] 101 % of control

O=C(O)c1cccc2ccc(Br)cc12
inactive: endpoint: median survival time, dose: 50.0 mg/kg/injection, schedule: Q04DX002 (ip), vehicle: saline with Tween-80 100 % of control | endpoint: median survival time, dose: 100.0 mg/kg/injection, schedule: Q04DX002 (ip), vehicle: saline with Tween-80 100 % of control | endpoint: median survival time, dose: 200.0 mg/kg/injection, schedule: Q04DX002 (ip), vehicle: saline with Tween-80 111 % of control

CC(=O)Oc1cccc2c1C(=O)c1c(OC(C)=O)cccc1C2=O
inactive: endpoint: mean survival time, dose: 25.0 mg/kg/injection, schedule: Q01DX009 (ip), vehicle: water 102 % of control | endpoint: mean survival time, dose: 50.0 mg/kg/injection, schedule: Q01DX009 (ip), vehicle: water 93 % of control | endpoint: mean survival time, dose: 100.0 mg/kg/injection, schedule: Q01DX009 (ip), vehicle: water 96 % of control | endpoint: mean survival time, dose: 200.0 mg/kg/injection, schedule: Q01DX009 (ip), vehicle: water 88 % of control

O[C@@H](c1ccccc1)[C@@H](c1ccccc1)N1CCCCC1
inactive: [8] 103 % of control | endpoint: mean survival time, dose: 100.0 mg/kg/injection, schedule: Q01DX001 (ip), vehicle: saline 96 % of control | [9] 108 % of control | endpoint: mean survival time, dose: 200.0 mg/kg/injection, schedule: Q01DX001 (ip), vehicle: saline 104 % of control | endpoint: mean survival time, dose: 200.0 mg/kg/injection, schedule: Q04DX003 (ip), vehicle: saline 98 % of control

COc1ccc(C(OC(=O)Oc2ccccc2)c2ccccc2)cc1 (configuration not stated)
inactive: endpoint: mean survival time, dose: 100.0 mg/kg/injection, schedule: Q04DX002 (ip), vehicle: other 93 % of control | endpoint: mean survival time, dose: 200.0 mg/kg/injection, schedule: Q04DX002 (ip), vehicle: other 96 % of control | endpoint: mean survival time, dose: 400.0 mg/kg/injection, schedule: Q04DX002 (ip), vehicle: other 96 % of control

O=S(=O)(CCl)OCCCl
active: [10] 193 % of control | endpoint: median survival time, dose: 100.0 mg/kg/injection, schedule: Q01DX009 (ip), vehicle: saline with Tween-80 173 % of control
inactive: endpoint: mean survival time, dose: 6.25 mg/kg/injection, schedule: Q01DX009 (ip), vehicle: saline with Tween-80 101 % of control | endpoint: mean survival time, dose: 12.5 mg/kg/injection, schedule: Q01DX009 (ip), vehicle: saline with Tween-80 115 % of control and 117 % of control | endpoint: mean survival time, dose: 25.0 mg/kg/injection, schedule: Q01DX009 (ip), vehicle: saline with Tween-80 120 % of control | [2] 86 % of control | endpoint: median survival time, dose: 6.25 mg/kg/injection, schedule: Q01DX009 (ip), vehicle: saline with Tween-80 101 % of control and 108 % of control | endpoint: median survival time, dose: 12.5 mg/kg/injection, schedule: Q01DX009 (ip), vehicle: saline with Tween-80 100 % of control and 104 % of control | endpoint: median survival time, dose: 50.0 mg/kg/injection, schedule: Q01DX009 (ip), vehicle: saline with Tween-80 120 % of control

OCCOc1ccc(Cl)cc1
inactive: [2] 104 % of control | [1] 96 % of control | [3] 100 % of control | [4] 96 % of control | [6] 103 % of control

c1ccc([Si](c2ccccc2)(c2cccs2)c2cccs2)cc1
inactive: [1] 102 % of control | [4] 106 % of control | [6] 114 % of control

COc1ccc(C2C3CCC(C3)C2N)cc1 (configuration not stated)
inactive: endpoint: mean survival time, dose: 5.0 mg/kg/injection, schedule: Q01DX009 (ip), vehicle: saline 96 % of control | endpoint: mean survival time, dose: 10.0 mg/kg/injection, schedule: Q01DX009 (ip), vehicle: saline 96 % of control | endpoint: mean survival time, dose: 20.0 mg/kg/injection, schedule: Q01DX009 (ip), vehicle: saline 92 % of control | endpoint: mean survival time, dose: 25.0 mg/kg/injection, schedule: Q04DX003 (ip), vehicle: saline 101 % of control | [8] 96 % of control | [9] 90 % of control

NCCCCOc1ccc([N+](=O)[O-])cc1Cl
inactive: endpoint: mean survival time, dose: 75.0 mg/kg/injection, schedule: Q01DX001 (ip), vehicle: saline 100 % of control | endpoint: mean survival time, dose: 150.0 mg/kg/injection, schedule: Q01DX001 (ip), vehicle: saline 102 % of control

COc1ccc(OCCOC(=O)Nc2ccc(Cl)cc2C)cc1
inactive: [10] 90 % of control | [2] 96 % of control | [3] 100 % of control

O=[N+]([O-])c1ccc(N/N=C/c2ccnc3ccccc23)cc1
inactive: endpoint: mean survival time, dose: 100.0 mg/kg/injection, schedule: Q04DX003 (ip), vehicle: Klucel (hydroxypropylcellulose) (HPC) 89 % of control | endpoint: mean survival time, dose: 200.0 mg/kg/injection, schedule: Q04DX003 (ip), vehicle: Klucel (hydroxypropylcellulose) (HPC) 91 % of control | endpoint: mean survival time, dose: 400.0 mg/kg/injection, schedule: Q04DX003 (ip), vehicle: Klucel (hydroxypropylcellulose) (HPC) 97 % of control

COc1cc(NC(N)=O)ccc1Nc1c2ccc(N)cc2nc2cc(N)ccc12
inactive: endpoint: mean survival time, dose: 0.5 mg/kg/injection, schedule: Q01DX009 (ip), vehicle: saline 100 % of control | endpoint: mean survival time, dose: 1.0 mg/kg/injection, schedule: Q01DX009 (ip), vehicle: saline 98 % of control | endpoint: mean survival time, dose: 2.0 mg/kg/injection, schedule: Q01DX009 (ip), vehicle: saline 102 % of control | endpoint: mean survival time, dose: 4.0 mg/kg/injection, schedule: Q01DX009 (ip), vehicle: saline 102 % of control | endpoint: mean survival time, dose: 8.0 mg/kg/injection, schedule: Q01DX009 (ip), vehicle: saline 103 % of control | endpoint: mean survival time, dose: 16.0 mg/kg/injection, schedule: Q01DX009 (ip), vehicle: saline 111 % of control

CC(C)(C)c1ccc(O)c(C(=O)N/N=C/c2ccccc2O)c1
inactive: [7] 97 % of control | endpoint: mean survival time, dose: 200.0 mg/kg/injection, schedule: Q01DX001 (ip), vehicle: saline with Tween-80 104 % of control | endpoint: mean survival time, dose: 400.0 mg/kg/injection, schedule: Q01DX001 (ip), vehicle: saline with Tween-80 93 % of control

CCCCCCN(CCCCCC)CC(O)c1ccncc1 (configuration not stated)
inactive: endpoint: mean survival time, dose: 25.0 mg/kg/injection, schedule: Q04DX003 (ip), vehicle: saline sonified 100 % of control | endpoint: mean survival time, dose: 50.0 mg/kg/injection, schedule: Q04DX003 (ip), vehicle: saline sonified 92 % of control | endpoint: mean survival time, dose: 100.0 mg/kg/injection, schedule: Q04DX003 (ip), vehicle: saline sonified 100 % of control

CCCCC1CCCCC1
inactive: [1] 95 % of control | [4] 100 % of control | [6] 90 % of control

CC(c1ccccc1)c1ccc(O)cc1 (configuration not stated)
inactive: [1] 103 % of control | [4] 93 % of control | [6] 91 % of control

CC(CN(C)C)CN1c2ccccc2Sc2ccc(C(F)(F)F)cc21 (configuration not stated)
inactive: endpoint: mean survival time, dose: 0.63 mg/kg/injection, schedule: Q04DX003 (ip), vehicle: saline 94 % of control | endpoint: mean survival time, dose: 1.25 mg/kg/injection, schedule: Q04DX003 (ip), vehicle: saline 96 % of control | endpoint: mean survival time, dose: 2.5 mg/kg/injection, schedule: Q04DX003 (ip), vehicle: saline 91 % of control | endpoint: mean survival time, dose: 6.25 mg/kg/injection, schedule: Q01DX009 (ip), vehicle: saline 91 % of control | endpoint: mean survival time, dose: 12.5 mg/kg/injection, schedule: Q01DX009 (ip), vehicle: saline 102 % of control

COc1ccc(NCC(=O)O)c([N+](=O)[O-])c1
inactive: [1] 91 % of control | [4] 101 % of control

COc1ccccc1NC(=O)Nc1cc([N+](=O)[O-])ccc1OC
inactive: endpoint: mean survival time, dose: 100.0 mg/kg/injection, schedule: Q04DX002 (ip), vehicle: saline with Tween-80 96 % of control | endpoint: mean survival time, dose: 200.0 mg/kg/injection, schedule: Q04DX002 (ip), vehicle: saline with Tween-80 93 % of control | endpoint: mean survival time, dose: 400.0 mg/kg/injection, schedule: Q04DX002 (ip), vehicle: saline with Tween-80 86 % of control

CC(=O)Nc1cc(Cl)ccc1C(=O)O
inactive: [10] 96 % of control | [2] 98 % of control | [3] 100 % of control

O=C1C2CC3C1C1(Cl)C(Cl)C4(Cl)C2C3C1(Cl)C4(Cl)Cl (configuration not stated)
inactive: endpoint: mean survival time, dose: 9.5 mg/kg/injection, schedule: Q01DX001 (ip), vehicle: other 98 % of control | endpoint: mean survival time, dose: 19.0 mg/kg/injection, schedule: Q01DX001 (ip), vehicle: other 104 % of control | endpoint: mean survival time, dose: 38.0 mg/kg/injection, schedule: Q01DX001 (ip), vehicle: other 103 % of control | endpoint: mean survival time, dose: 75.0 mg/kg/injection, schedule: Q01DX001 (ip), vehicle: other 104 % of control

NC(=O)CSc1ccc(Cl)cc1
inactive: [2] 113 % of control | [3] 94 % of control | [5] 102 % of control

CC1(C)CC(=O)NC1=O
inactive: endpoint: mean survival time, dose: 100.0 mg/kg/injection, schedule: Q01DX009 (ip), vehicle: saline 100 % of control | endpoint: mean survival time, dose: 200.0 mg/kg/injection, schedule: Q01DX009 (ip), vehicle: saline 102 % of control | endpoint: mean survival time, dose: 400.0 mg/kg/injection, schedule: Q01DX009 (ip), vehicle: saline 94 % of control
